According to patent US12233161B1, “Lipids and lipid nanoparticle formulations” (LONGUIDE BIOPHARMA CORPORATION, priority 2024, dated 2025):

Legend:
mice = experiment: In vivo delivery of FLuc-mRNA lipid nanoparticles in mice, in vivo imaging (IVIS); conditions: for IVIS: Fluc-mRNA
Method in brief: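 Mice (n=3) received about 75 μL FLuc-mRNA LNP per mouse intramuscularly (rectus femoris), intravenously (tail vein), intraperitoneally or subcutaneously (back). After injection, D-luciferin (200 μL, 15 mg/mL) was given i.p. 10-15 min before IVIS imaging.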

[1] = Potential characterization of nucleic acid lipid nanoparticle preparations; format: physicochemical
Method in brief: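 Zeta potential was read on a Malvern ZEN3700 after diluting 20 μL lipid nanoparticle solution (about 0.04 mg/mL mRNA) into 780 μL ultrapure water. Alternatively, a 27.5 μL sample in 200 μL water was first sized by dynamic light scattering, then diluted with 600 μL more water for potential measurement.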

[2] = Particle size and PDI of nucleic acid lipid nanoparticle preparations by dynamic light scattering; format: physicochemical
Method in brief: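 Size read by DLS after diluting the LNP preparation (approx. 0.04 mg/mL mRNA) in ultrapure water with gentle pipette mixing. The same sample, recovered and diluted further with water, was then used for zeta potential measurement.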

[3] = IM, DMG-PEG2000:DSPC:Chol:compound 1.40:11.15:38.95:48.50, N/P 30
[4] = IV, body, DMG-PEG2000:DSPC:Chol:compound 1.40:11.15:38.95:48.50, N/P 30
[5] = IV, liver, DMG-PEG2000:DSPC:Chol:compound 1.40:11.15:38.95:48.50, N/P 30
[6] = IV, lung, DMG-PEG2000:DSPC:Chol:compound 1.40:11.15:38.95:48.50, N/P 30
[7] = IV, spleen, DMG-PEG2000:DSPC:Chol:compound 1.40:11.15:38.95:48.50, N/P 30
[8] = DMG-PEG2000:DSPC:Chol:compound 1.40:11.15:38.95:48.50, N/P 30
[9] = IM, DMG-PEG2000:DPPC:Chol:compound 1.40:11.15:38.95:48.50, N/P 30
[10] = DMG-PEG2000:DPPC:Chol:compound 1.40:11.15:38.95:48.50, N/P 30
[11] = IV, body, DMG-PEG2000:DPPC:Chol:compound 1.40:11.15:38.95:48.50, N/P 30
[12] = IV, liver, DMG-PEG2000:DPPC:Chol:compound 1.40:11.15:38.95:48.50, N/P 30
[13] = IV, lung, DMG-PEG2000:DPPC:Chol:compound 1.40:11.15:38.95:48.50, N/P 30
[14] = IV, spleen, DMG-PEG2000:DPPC:Chol:compound 1.40:11.15:38.95:48.50, N/P 30
[15] = IV, liver, DMG-PEG2000:DSPC:Chol:compound 1.00:10.00:33.00:56.00, N/P 35.5
[16] = IV, liver, DMG-PEG2000:DSPC:Chol:compound 1.40:11.15:38.95:48.50, N/P 40
[17] = IV, lung, DMG-PEG2000:DSPC:Chol:compound 1.00:10.00:33.00:56.00, N/P 35.5
[18] = IV, lung, DMG-PEG2000:DSPC:Chol:compound 1.40:11.15:38.95:48.50, N/P 40
[19] = IV, spleen, DMG-PEG2000:DSPC:Chol:compound 1.00:10.00:33.00:56.00, N/P 35.5
[20] = IV, spleen, DMG-PEG2000:DSPC:Chol:compound 1.40:11.15:38.95:48.50, N/P 40
[21] = DMG-PEG2000:DSPC:Chol:compound 1.40:11.15:38.95:48.50, N/P 40
[22] = DMG-PEG2000:DSPC:Chol:compound 1.00:10.00:33.00:56.00, N/P 35.5
[23] = DMG-PEG2000:DSPC:Chol:compound 1.40:11.15:38.95:48.50, N/P 20

| Zeta potential (mV) [1, 8] [mV] | PDI [2, 8] | Particle size (nm) [2, 8] [nm] | Zeta potential (mV) [1, 10] [mV] | PDI [2, 10] | Particle size (nm) [2, 10] [nm] | Structure (SMILES) | IVIS (mice; [3]) | IVIS (mice; [4]) | % of organ targeting (mice; [5]) [%] | IVIS (mice; [5]) | % of organ targeting (mice; [6]) [%] | IVIS (mice; [6]) | % of organ targeting (mice; [7]) [%] | IVIS (mice; [7]) | IVIS (mice; [9]) | other results |
| --- | --- | --- | --- | --- | --- | --- | --- | --- | --- | --- | --- | --- | --- | --- | --- | --- |
| 13.33 | 0.22 | 151.20 | – | – | – | CCCCCCCCC(CCCCCC)C(=O)OCCCCCCOC(=O)C(O)CN(C)CCN(C)CCN(C)CC(O)C(=O)OCCCCCCOC(=O)C(CCCCCC)CCCCCCCC (stereo not drawn) [Compound L0292] | 1.05E+05 | 9.82E+06 | 25.18 | 3.22E+06 | 16.03 | 2.05E+06 | 58.80 | 7.53E+06 | – | – |
| – | – | – | 4.33 | 0.24 | 116.17 | CCCCCCCCCCCCN(C)C(=O)C(O)CN(C)CCCN(C)CCCN(C)CC(O)C(=O)N(C)CCCCCCCCCCCC (stereo not drawn) [Compound L0343] | – | – | – | – | – | – | – | – | 9.39E+04 | IVIS (mice; IV, organ not given, DMG-PEG2000:DPPC:Chol:compound 1.40:11.15:38.95:48.50, N/P 30): 2.20E+05 |
| – | – | – | 10.25 | 0.19 | 81.64 | CCCCCCCCCCCCN(C)C(=O)C(O)CN(CCCN(C)CCCN(CC(O)C(=O)N(C)CCCCCCCCCCCC)CC(O)C(=O)N(C)CCCCCCCCCCCC)CC(O)C(=O)N(C)CCCCCCCCCCCC (stereo not drawn) [Compound L0345] | – | – | – | – | – | – | – | – | 3.56E+05 | IVIS (mice; [11]): 2.28E+06; % of organ targeting (mice; [12]): 1.89%; IVIS (mice; [12]): 1.27E+05; % of organ targeting (mice; [13]): 90.22%; IVIS (mice; [13]): 6.05E+06; % of organ targeting (mice; [14]): 7.89%; IVIS (mice; [14]): 5.29E+05 |
| – | – | – | 16.13 | 0.26 | 89.56 | CCCCCCCCCCCCN(C)C(=O)C(O)CN(CCN(C)CCN(CC(O)C(=O)N(C)CCCCCCCCCCCC)CC(O)C(=O)N(C)CCCCCCCCCCCC)CC(O)C(=O)N(C)CCCCCCCCCCCC (stereo not drawn) [Compound L0344] | – | – | – | – | – | – | – | – | 8.28E+04 | IVIS (mice; [11]): 1.91E+06; % of organ targeting (mice; [12]): 2.01%; IVIS (mice; [12]): 1.15E+05; % of organ targeting (mice; [13]): 93.07%; IVIS (mice; [13]): 5.32E+06; % of organ targeting (mice; [14]): 4.92%; IVIS (mice; [14]): 2.81E+05 |
| 11.00 | 0.09 | 132.40 | – | – | – | CCCCCCCCCCCCNC(=O)C(O)CNCCCN(C)CCCNCC(O)C(=O)NCCCCCCCCCCCC (stereo not drawn) [Compound L0289] | 1.24E+05 | – | – | – | – | – | – | – | – | IVIS (mice; IV, organ not given, DMG-PEG2000:DSPC:Chol:compound 1.40:11.15:38.95:48.50, N/P 30): 1.63E+05 |
| 4.21 | 0.13 | 78.38 | – | – | – | CCCCCCC(CCCCCC)C(=O)OCCCCCCOC(=O)C(O)CN(CCN(C)CCN(CC(O)C(=O)OCCCCCCOC(=O)C(CCCCCC)CCCCCC)CC(O)C(=O)OCCCCCCOC(=O)C(CCCCCC)CCCCCC)CC(O)C(=O)OCCCCCCOC(=O)C(CCCCCC)CCCCCC (stereo not drawn) [Compound L0336] | 1.51E+08 | 9.63E+08 | 87.42 | 1.95E+08 | 0.71 | 1.59E+06 | 11.87 | 2.65E+07 | – | – |
| – | – | – | – | – | – | CCCCCCCCCCNC(=O)C(O)CN(CCCN(CCCN(CCO)CCO)CCCN(CC(O)C(=O)NCCCCCCCCCC)CC(O)C(=O)NCCCCCCCCCC)CC(O)C(=O)NCCCCCCCCCC (stereo not drawn) [Compound L0304] | – | – | – | – | – | – | – | – | – | IVIS (mice; IM, DMG-PEG2000:DSPC:Chol:compound 1.40:11.15:38.95:48.50, N/P 40): 3.48E+05; IVIS (mice; IV, body, DMG-PEG2000:DSPC:Chol:compound 1.00:10.00:33.00:56.00, N/P 35.5): 9.15E+06; IVIS (mice; IV, body, DMG-PEG2000:DSPC:Chol:compound 1.40:11.15:38.95:48.50, N/P 40): 1.29E+07; % of organ targeting (mice; [15]): 2.63%; IVIS (mice; [15]): 6.18E+05; % of organ targeting (mice; [16]): 2.30%; IVIS (mice; [16]): 7.31E+05; % of organ targeting (mice; [17]): 90.44%; IVIS (mice; [17]): 2.12E+07; % of organ targeting (mice; [18]): 90.53%; IVIS (mice; [18]): 2.87E+07; % of organ targeting (mice; [19]): 6.93%; IVIS (mice; [19]): 1.62E+06; % of organ targeting (mice; [20]): 7.17%; IVIS (mice; [20]): 2.27E+06; Zeta potential (mV) [1, 21]: 11.93 mV; PDI [2, 22]: 0.15; Particle size (nm) [2, 22]: 121.27 nm; PDI [2, 21]: 0.14; Particle size (nm) [2, 21]: 101.73 nm |
| 9.23 | 0.13 | 129.13 | – | – | – | CCCCCCC(CCCCCC)C(=O)OCCCCOC(=O)C(O)CN(CCCN(C)CCCN(CC(O)C(=O)OCCCCOC(=O)C(CCCCCC)CCCCCC)CC(O)C(=O)OCCCCOC(=O)C(CCCCCC)CCCCCC)CC(O)C(=O)OCCCCOC(=O)C(CCCCCC)CCCCCC (stereo not drawn) [Compound L0294] | 3.81E+07 | 3.72E+08 | 38.21 | 5.13E+07 | 7.55 | 1.01E+07 | 54.25 | 7.28E+07 | – | – |
| – | – | – | – | – | – | CCCCCCCCCCOC(=O)C(O)CN(CCOCCOCCN(CC(O)C(=O)OCCCCCCCCCC)CC(O)C(=O)OCCCCCCCCCC)CC(O)C(=O)OCCCCCCCCCC (stereo not drawn) [Compound L0324] | – | – | – | – | – | – | – | – | – | IVIS (mice; IM, DMG-PEG2000:DSPC:Chol:compound 1.40:11.15:38.95:48.50, N/P 20): 4.15E+05; IVIS (mice; IV, organ not given, DMG-PEG2000:DSPC:Chol:compound 1.40:11.15:38.95:48.50, N/P 20): 7.27E+05; Zeta potential (mV) [1, 23]: 5.44 mV; PDI [2, 23]: 0.47; Particle size (nm) [2, 23]: 445.20 nm |
